Experimental data as given in patent US12508243B2, “Compositions and methods for treating cancer and improving epithelial homeostasis” (The Regents of the University of California, priority 2019, dated 2025).
Entries after “also recorded” stand apart in the source; their conditions may differ.

Legend:
Trp63 = Trp63 expression with CHIR and WIC1 treatment (FIG. 4F); assay type: cell-based; conditions: WIC1 treatment of CHIR-induced expression
Procedure: (§1) RNA was isolated with the RNeasy Mini Kit (Qiagen 74104) following manufacturer's protocol and quantified using a NanoDrop Spectrophotometer (ThermoFisher). cDNA synthesis was performed using the TaqMan Reverse Transcription Reagents (ThermoFisher) as indicated by the company. qPCR was then performed using the TaqMan PCR Master Mix (Applied Biosystems) on the StepOne-Plus Real Time PCR System.

[1] = tested on: Wnt signaling target genes CCND1, MYC, CTNNB1; experiment: qRT-PCR of downstream Wnt signaling target genes in ABSCs; assay type: cell-based, human; conditions: ABSCs under ALI conditions
Procedure: as §1
(§2) To assess whether WIC1 could reverse Wnt/β-catenin-induced ABSC hyperproliferation, human ABSCs were treated with either DMSO, CHIR, or CHIR+WIC1. […] It was then sought to determine if WIC1 could promote ABSC differentiation to ciliated cells under ALI conditions.

[2] = tested on: TCF/LEF luciferase reporter; experiment: TCF/LEF luciferase reporter assay in transduced BEAS2B cells (CHIR-induced); assay type: cell-based, human
Procedure: BEAS2B cells (ATCC CRL-9609) were seeded in a 6-well plate and infected with Cignal lentiviral particles containing a TCF/LEF luciferase reporter (Qiagen CLS-018L). Cells were spin infected at 37° C. for one hour using a multiplicity of infection of 20. Cells were selected with 0.6 μg/mL puromycin to isolate stably expressing clones.
(§3) For luciferase reporter assays conducted outside of the high-throughput drug screen, BEAS2B cells were seeded in a 96-well plate at 20,000 cells per well. The following day, cells were with treated DMSO, 5 μM CHIR99021 (CHIR; Tocris 4423), or 5 μM CHIR plus WIC2 (Key Organics GP-0355), Coumarin (Sigma C4261), or WIC1 for 24 hours. Lysis reactions were conducted using BrightGlo (Promega E1910) and incubated for two minutes at room temperature prior to transferring luminescence reactions to white-bottom, white-walled 96-well plates (Costar). Toxicity assays were conducted by adding Cell Titer Glo reagent (Promega) following manufacturer's protocol. Luminescence readings were conducted using the Clariostar plate reader.
In light of the finding that Wnt/β-catenin signaling drives ABSC hyperproliferation, a small molecule inhibitors of the pathway that could restore airway homeostasis. A high-throughput drug screen was established to identify compounds capable of reducing TCF/LEF activity measured by a luciferase reporter induced by CHIR treatment in a 384-well format (FIG. 3A). Briefly, white-bottom 384-well plates (Greiner One) were precoated overnight with 0.01 mg/mL fibronectin from human plasma (Sigma F0895), 0.03 mg/mL rat tail collagen type I (Corning 354249), and 0.01 mg/mL BSA (ThermoFisher BP-9706) diluted in 50 uL of Airway Epithelial Cell Growth Medium (PromoCell C21060). Precoat was then aspirated and washed using 100 μL the BioTek EL406. A custom V&P pin tool mounted to a Beckman FX liquid handler was then used to pin […] of 10 mM stock compound. 2,000 BEAS2B cells per well were then seeded using the Multidrop. Cells were therefore treated with 1% DMSO, 5 μM CHIR, or 5 μM CHIR+10 μM pinned compound and incubated for 24 hours at 37° C. and 5% CO2. […] 25 μL BrightGlo (Promega) was subsequently added to each well using the BioTek EL405 and incubated for 2 minutes prior reading luminescence values with the Envision plate reader (FIG. 3B). […] Z′ factor values were used to assess assay quality and was calculated by: Z′=1-3(SD Total+SDBackground)/(MeanTotal−MeanBackground) where SDTotal and MeanTotal are the standard deviation and mean of signal for CHIR-treated wells, and SDBackground and MeanBackground are the standard deviation and mean of signal for DMSO-treated wells. The Z′ factor value was calculated to be 0.82.

TP63 = experiment: qRT-PCR of TP63 expression in BEAS2B cells; assay type: cell-based, human; conditions: CHIR plus WIC1
Procedure: as §1

human ABSCs [3] = experiment: Proliferation of human ABSCs treated with DMSO, CHIR or CHIR+WIC1; assay type: cell-based; conditions: CHIR+WIC1 vs CHIR
Procedure: (§4) Mouse and human ABSCs were isolated following a previously published method. Briefly, mouse tracheas were dissected, cleaned, and incubated in 16 U/mL dispase for 30 minutes (1 hour for human) at room temperature. Tracheas were then incubated in 0.5 mg/mL DNase for another 30 minutes (1 hour for human) at room temperature. Epithelium was stripped and incubated in 0.1% Trypsin-EDTA for 30 minutes (1 hour for human) shaking at 37° C. to generate a single cell suspension. Isolated cells were passed through a 40 μm strainer and stained with fluorophore-conjugated antibodies against ITGA6 and TROP2. ITGA6+ TROP2+ cells were obtained via FACS that was completed using the BD FACSAria cell sorter.
(§5) In vitro proliferation was studied using the Click-iT EdU incorporation assay kit (Invitrogen C10337) following the company's protocol. Briefly, mouse and human AB SC cultures were treated with 10 μM EdU 6-8 hours prior to commencing IFs. Cells were fixed with […] for 15 minutes followed by permeabilization in 0.5% Triton-X for 20 minutes. EdU cocktail was incubated for 30 minutes in darkness followed by immunocytochemistry.
as §2

human ABSCs [4] = experiment: Air-liquid interface (ALI) differentiation assay with human ABSCs; assay type: cell-based
Procedure: (§6) 24-well 6.5 mm transwells with 0.4 μm pore polyester membrane inserts were coated with 0.2 mg/mL collagen type I dissolved in 60% ethanol and allowed to air dry. ABSCs were seeded at 100,000 cells per well and allowed to grow in the submerged phase of culture for 4-5 days with 500 μl media in the basal chamber and 200 μl media in the apical chamber. ALI cultures were then established and culture with only 500 μl media in the basal chamber, and cultures harvested at varying timepoints for immunofluorescence studies. Media was changed every other day and cultures were maintained at 37° C. and 5% C02. ABSCs were treated with the indicated concentrations of GSK3XV (Sigma 361558), CHIR or WIC1.
(§7) Mouse and human ABSCs were fixed in […] for 15 minutes followed by permeabilization with 0.50% Triton-X for 10 minutes. Cells were blocked using serum-free protein block (Dako X090930) for one hour at room temperature and overnight primary antibody incubation. Secondary antibodies were incubated for 1 hour in darkness, washed, and mounted using Vectashield hardest mounting medium with DAPI (Vector Labs H-1500). IF images were obtained using an LSM780 or LSM880 Zeiss confocal microscope and composite images generated using Fiji.
as §2

mouse ABSCs (mABSCs) [5] = experiment: Air-liquid interface (ALI) differentiation assay with mouse ABSCs; assay type: cell-based; conditions: mABSCs, ALI
Procedure: as §6
Mouse ABSCs were grown in MTEC Plus media and MTEC serum-free media during the submerged and ALI phases of culture, respectively. MTEC base media is DMEM/Ham's F12 50/50 (Corning 15090CV). Table S1 and Table S2 indicate the media components and concentrations for MTEC Plus and MTEC serum-free media, respectively.
as §7, with “Fiji. […]” for “Fiji.”

mouse ABSCs (mABSCs) [6] = experiment: EdU proliferation assay in mouse ABSCs, submerged culture; assay type: cell-based; conditions: 1 μM CHIR + 1 μM inhibitor, submerged culture 4 days
Procedure: as §4, §5
(§8) To determine whether the pathobiology observed in human patients can be modeled in vitro, mouse ABSCs (mABSCs) were treated with GSK3β inhibitor CHIR99021 (CHIR) under submerged culture conditions for 4 days to activate canonical Wnt signaling (FIG. 2A).

BEAS2B cells [7] = experiment: Hoechst stain toxicity assay (nuclei count) in BEAS2B cells; assay type: cell-based, human; conditions: CHIR+10 uM compound, 24 hours
p-β-catenin^Y489 = experiment: Immunofluorescence staining of phosphorylated β-catenin localization in ABSCs; assay type: cell-based, mouse; conditions: WIC1 added to CHIR-treated cultures
Procedure: as §7, §8

BEAS2B cells [8] = experiment: Cell Titer Glo toxicity assay in BEAS2B cells; assay type: cell-based, human
Procedure: as §3

## CCN1CCN(c2ccc(NC(=O)c3cc4ccccc4oc3=O)cc2)CC1 [WIC1]
Trp63
  Trp63 expression: substantially reversed
[1]
  mRNA expression of downstream Wnt signaling target genes (CCND1, MYC, CTNNB1): decreased mRNA expression
[2]; 100 nM and 1 μM, WIC1, MSAB, LF3, ICG001 compared
  TCF/LEF activity, inhibitor comparison: most potent inhibitor
[2]; CHIR-induced reporter, single treatment vs CHIR
  TCF/LEF luciferase reporter activity: decreased TCF/LEF luciferase reporter activity; also recorded: decreases TFC/LEF luciferase reporter activity; also recorded: suppressed TCF/LEF activity
[2]; CHIR-induced reporter, various concentrations
  TCF/LEF luciferase reporter activity, dose course: stepwise decrease in TCF/LEF activity; also recorded: Higher concentrations of WIC1 decrease TFC/LEF luciferase reporter activity to a greater extent
TP63
  TP63 expression: reduced
Human ABSCs [3]
  Human ABSC proliferation: significant reduction in ABSC proliferation; also recorded: reduced Wnt/β-catenin-driven human ABSC hyperproliferation
Human ABSCs [4]; ABSCs, ALI, 100 nM vs DMSO
  Ciliated cell differentiation: significantly induced ciliated cell differentiation; also recorded: increased differentiation to ciliated cells
Human ABSCs [4]; in vitro, concentration not given
  Ciliated cell differentiation: promoted ciliated cell differentiation
Mouse ABSCs (mABSCs) [5]; 100 nM inhibitor vs DMSO
  Proportion of ciliated cells: induced a greater proportion of ciliated cells
Mouse ABSCs (mABSCs) [5]; 1 μM inhibitor vs DMSO
  Percentage of ciliated cells: no effect on the percentage of ciliated cells
Mouse ABSCs (mABSCs) [6]
  mABSC proliferation (EdU incorporation): decreased mABSC proliferation to a similar degree
BEAS2B cells [7]
  Toxicity by Hoechst stain: no toxicity; also recorded: minimal toxicity
p-β-catenin^Y489
  Nuclear localization of p-β-catenin^Y489: decreased the nuclear localization
BEAS2B cells [8]; 10 μM
  Toxicity by Cell Titer Glo: non-toxic
BEAS2B cells [8]; various concentrations
  Toxicity by Cell Titer Glo: minimal toxicity at each concentration
